Measurements from US9084423B2, “Inhibition of bacterial biofilms with imidazole derivatives” (North Carolina State University, priority 2007, dated 2015).

Legend:
[1] = system: V. Vulnificus; test: Biofilm inhibition screen of TABLE 1, V. vulnificus; type: cell-based, Vibrio vulnificus; design: key: “X” denotes biofilm inhibition; conditions: 500 μM active compound, 24 hours
Experimental: (§1) Each compound was assayed for the ability to inhibit the formation of P. aeruginosa biofilms. […] We employed a standard crystal violet reporter assay to assess for the formation of biofilms. Briefly, P. aeruginosa strain PAO1 was allowed to form biofilms in a multi-well plate in the absence or presence of our compounds. Planktonic (or free growing) bacteria were then removed, wells washed vigorously, and crystal violet added. Crystal violet stains the remaining bacteria which, following ethanol solubilization, can be quantitated by spectrophotometry (A540).
(§2) Active compounds were tested for inhibition of biofilm formation using various bacterial strains. Assays were performed as reported above, with 500 μM active compound, and 24 hours. “X” denotes biofilm inhibition.

[2] = system: H. Pacifica; test: Biofilm inhibition screen of TABLE 1, H. pacifica; type: cell-based, Halomonas pacifica; design: key: “X” denotes biofilm inhibition; conditions: 500 μM active compound, 24 hours
Experimental: as §1, §2

[3] = system: P. aeruginosa; test: Biofilm inhibition screen of TABLE 1, P. aeruginosa; type: cell-based, Pseudomonas aeruginosa; design: key: “X” denotes biofilm inhibition; conditions: 500 μM active compound, 24 hours
Experimental: as §1, §2

[4] = system: P. aeruginosa PA14; test: Static biofilm inhibition assay (crystal violet), PA14; type: cell-based, Pseudomonas aeruginosa; conditions: for IC50: PA14, inhibition of biofilm formation, crystal violet, 24 hours
Experimental: (§3) An overnight culture of the bacterial strain being screened against was subcultured at an OD600 of 0.1 into the media used (listed below with strain) and then pipetted into test tubes along with a predetermined concentration of our compound of interest. Test tubes were then poured into tilted Petri dishes and 100 μL of media, strain and compound were then transferred into 96-well PVC microtiter plates. These microtiter plates were then covered, wrapped in Saran™ Wrap polyethylene film (S.C. Johnson, Racine, Wis.) and allowed to incubate at 37° C. for 24 hours. After that time, the medium was discarded and the plates were thoroughly washed with water. The remaining biofilm that was formed during incubation was stained with 100 μL of a 0.1% crystal violet solution and allowed to incubate at room temperature for 30 minutes. After 30 minutes, the crystal violet was discarded and washed thoroughly again with water. The remaining crystal violet that had stained the biofilm in the inside walls of the 96-well PVC plates was solubilized with 200 μL of 95% ethanol. The quantification of biofilm formation was accomplished by transferring 125 μL of the ethanol solution into a polystyrene microtiter dish, which was read by spectrophotometry (A540). After the background has been subtracted from each row, a percent inhibition can be calculated by dividing the amount of crystal violet in wells that contained compound by the amount of crystal violet in wells that contained bacteria only. Each concentration reported during the course of this study was repeated two to five times with each of those biofilm inhibition assays being done in 6 replicates each.
(§4) An overnight culture of the wild type strain was subcultured at an OD600 of 0.10 into LBNS along with a predetermined concentration of the small molecule to be tested for biofilm inhibition. Samples were then aliquoted (100 μL) into the wells of a 96-well PVC microtiter plate. The microtiter dishes were covered and sealed before incubation under stationary conditions at 37° C. for 24 hours. After that time, the medium was discarded and the plates thoroughly washed with water. The wells were then inoculated with a 0.1% aqueous solution of crystal violet (100 μL) and allowed to stand at ambient temperature for 30 minutes. Following another thorough washing with water the remaining stain was solubilized with 200 μL of 95% ethanol. Biofilm inhibition was quantitated by measuring the OD540 for each well by transferring 125 μL of the ethanol solution into a fresh polystyrene microtiter dish for analysis.
(§5) To examine each compound's ability to inhibit the formation of Pseudomonas aeruginosa biofilms, PAO1 and PA14 were employed as the target bacterial strains using a crystal violet reporter assay. G. A. O'Toole, R. Kolter, Mol. Microbiol. 1998, 28, 449. All compounds were initially screened at 500 μM for anti-biofilm activity.
as §4, with “for 24 hours, After that” for “for 24 hours. After that”, “violet (100 pt) and allowed” for “violet (100 μL) and allowed”

[5] = system: P. aeruginosa strain PAO1; test: Static biofilm inhibition assay (crystal violet), PAO1; type: cell-based, Pseudomonas aeruginosa; conditions: for IC50: inhibition of biofilm formation, crystal violet, 24 hours
Experimental: as §1, §3, §4, §5
An overnight culture of the wild type strain was subcultured at an OD600 of 0.10 into LBNS along with a predetermined concentration of the small molecule to be tested for biofilm inhibition. Samples were then aliquoted (100 μL) into the wells of a 96-well PVC microtiter plate. The microtiter dishes were covered and sealed before incubation under stationary conditions at 37° C. for 24 hours, After that time, the medium was discarded and the plates thoroughly washed with water. […]

[6] = system: pre-formed PAO1 biofilms; test: Static biofilm dispersion assay, PAO1; type: cell-based; conditions: Pseudomonas aeruginosa, 24-hour pre-formed biofilm, 24 hours treatment
Experimental: (§6) One aspect associated with small molecule modulation of biofilm development is the ability to disperse a pre-formed biofilm. There have only been a limited number of examples in the literature of molecules that disperse bacterial biofilms. Banin et al., Appl. Environ. Microbiol., 2006, 72, 2064. L. M. Junker and J. Clardy, Antimicrob, Agents Ch., 2007, 51, 3582. Boles et al., Mol. Microbiol., 2005, 57, 1210. TAGE was assayed for its ability to disperse pre-formed PAO1 and PA14 biofilms. Each bacterial strain was allowed to form biofilms in a microtiter well for 24 hours in the absence of compound. […] After 24 hours, all the wells were washed vigorously to remove media and planktonic bacteria, and then were stained with crystal violet to quantify the amount of remaining biofilm Representative PAO1 results are depicted in FIG. 6.
(§7) An overnight culture of either PAO1 or PA14 was subcultured at an OD600 of 0.5 into LBNS and aliquoted (100 μL) into the wells of a 96-well PVC microtiter plate. […] The quantification of remaining biofilm was accomplished by transferring 125 μL of the ethanol solution into a polystyrene microtiter dish, which was read by spectrophotometry (A540). Percent dispersion was calculated in the same manner as percent biofilm inhibition described previously in this experimental section. […]

[7] = system: pre-formed PA14 biofilms; test: Static biofilm dispersion assay, PA14; type: cell-based; conditions: Pseudomonas aeruginosa, 24-hour pre-formed biofilm, 24 hours treatment
Experimental: as §6, §7

[8] = system: planktonic P. aeruginosa PA14; test: Planktonic growth (growth curves, colony counts), PA14; type: cell-based, Pseudomonas aeruginosa; conditions: growth curves and/or colony counts, presence vs absence of compound, at IC50 or as stated
[9] = system: planktonic P. aeruginosa PAO1; test: Planktonic growth (growth curves, colony counts), PAO1; type: cell-based, Pseudomonas aeruginosa; conditions: growth curves and/or colony counts, presence vs absence of compound, at IC50 or as stated
Source text: To answer the question of whether the compounds were antibiotics or true inhibitors of biofilm formation, we tested the ability of both compounds to inhibit growth of planktonic P. aeruginosa. Growth was quantitated by measuring optical density at 600 nm. […]

[10] = system: B. bronchiseptica biofilms (strain Rb50); test: Static biofilm inhibition assay (crystal violet), RB50; type: cell-based; conditions: Bordetella bronchiseptica, inhibition of biofilm formation, 24 hours
Experimental: as §3, with “The remaining crystal violet that had stained the biofilm in the inside walls of the 96-well PVC plates was solubilized with 200 μL of 95% ethanol.” left out, “Each concentration reported during the course of this study was repeated two to five times with each of those biofilm inhibition assays being done in 6 replicates each.” left out

[11] = system: PDO300; test: Planktonic growth (growth curves, colony counts), PDO300; type: cell-based, Pseudomonas aeruginosa; conditions: growth curves and/or colony counts
[12] = system: A. baumannii biofilms; test: Biofilm dispersion, A. baumannii; type: cell-based, Acinetobacter baumannii; conditions: range of concentrations, FIG. 21
Experimental: Finally, each of the TAGE derivatives were assayed for their ability to disperse pre-formed biofilms. […] While not wishing to be bound by any particular theory, it is hypothesized that the failure of these derivatives to effectively disperse biofilms, in contrast to TAGE, might be due to impeded diffusion through the biofilm matrix.
(§8) From a clinical perspective, the ability to disperse an established biofilm can be an important consideration, because a physician is typically faced with treating an established or chronic biofilm infection. DHS was assessed for its ability to disperse existing biofilms of P. aeruginosa, A. baumannii, and B. bronchiseptica. Each bacterial strain was allowed to form biofilms for 24 hours in the absence of compound. At the end of 24 hours, the media and planktonic bacteria were removed and the remaining biofilm was treated either with media alone or media containing DHS.

[13] = system: Acinetobacter Baumannii (ATCC 19606); test: Static biofilm inhibition assay (crystal violet), A. baumannii; type: cell-based; conditions: ATCC19606, inhibition of biofilm formation, 24 hours, read-out: IC50 value for inhibition against A. baumannii
Experimental: as §3, with “The remaining crystal violet that had stained the biofilm in the inside walls of the 96-well PVC plates was solubilized with 200 μL of 95% ethanol.” left out, “Each concentration reported during the course of this study was repeated two to five times with each of those biofilm inhibition assays being done in 6 replicates each.” left out

[14] = system: PDO300, mucoid strain of P. aeruginosa; test: Static biofilm inhibition assay (crystal violet), PDO300; type: cell-based; conditions: Pseudomonas aeruginosa, 24 h, read-out: IC50 against PDO300
Experimental: PDO300 was employed to assay if TAGE would inhibit the formation of mucoid biofilms. PDO300 is a well-characterized mucoid strain of P. aeruginosa that is genotypically identical to PAO1 except for the mucA mutation that converts the bacterium to the mucoid phenotype (Mathee et al., Microbiology, 1999, 145, 1349), PDO300 biofilms were allowed to develop in a 96-well plate in the absence or presence of TAGE. After 24 hours, the media and planktonic bacteria were removed, the wells were washed vigorously, and crystal violet was added. Crystal violet stains the bacterial biofilm that forms on the inside wall of the well at the air/liquid interface, which, following ethanol solubilization, can be quantitated by spectrophotometry (A540) (O'Toole et al., Mol. Microbiol., 1998, 30, 295).
An overnight culture of the bacterial strain being screened against was subcultured at an OD600 of 0.1 into the media used (listed below with strain) and then pipetted into test tubes along with a predetermined concentration of our compound of interest. Test tubes were then poured into tilted Petri dishes and 100 μL of media, strain and compound were then transferred into 96-well PVC microtiter plates. […] The quantification of biofilm formation was accomplished by transferring 125 μL of the ethanol solution into a polystyrene microtiter dish, which was read by spectrophotometry (A540). […]

[15] = system: existing biofilms of P. aeruginosa; test: Biofilm dispersion, P. aeruginosa (Example 6); type: cell-based, Pseudomonas aeruginosa; conditions: range of concentrations, FIG. 21
Experimental: as §8

[16] = system: A. baumannii; test: Planktonic growth (growth curves, colony counts), A. baumannii; type: cell-based, Acinetobacter baumannii; conditions: growth curves and/or colony counts
Experimental: Screens of the three compounds were performed against A. baumannii and B. bronchiseptica.

[17] = system: existing biofilms of B. bronchiseptica; test: Biofilm dispersion, B. bronchiseptica; type: cell-based, Bordetella bronchiseptica; conditions: range of concentrations, FIG. 21
Experimental: as §8

[18] = listed as DHS 23, hydrochloride
[19] = listed as DHS (7), hydrochloride

Question: NC[C@H]1Cc2nc(N)[nH]c2C[C@@H]1CN was tested. Which “V. Vulnificus biofilm inhibition” value [1] did it give?
Answer: X

Question: And the “H. Pacifica biofilm inhibition” value [2]?
Answer: X

Question: And the “P. aeruginosa biofilm inhibition” value [3]?
Answer: X

Question: Which “V. Vulnificus biofilm inhibition” value [1] does the source give for Nc1nc(Cc2c[nH]cn2)c[nH]1 here?
Answer: X

Question: And the “H. Pacifica biofilm inhibition” value [2]?
Answer: X

Question: With Nc1ncc2n1CCC2 as the molecule, how does the “V. Vulnificus biofilm inhibition” value [1] read?
Answer: X

Question: With CCCCCCCCCCCCNC(=O)CCCc1c[nH]c(N)n1.Cl [Compound 12, 4-(2-amino-1H-imidazol-4-yl)-N-dodecyl-butyramide hydrochloride] as the molecule, how does the IC50 ([4]; Pseudomonas aeruginosa) read?
Answer: 2.26 µM

Question: And the IC50 ([5]; Pseudomonas aeruginosa, PAO1)?
Answer: 2.84 µM

Question: What about the EC50 [6] of the same molecule?
Answer: 32.8 ± 4.7 µM

Question: What about the EC50 [7] of the same molecule?
Answer: 21.3 ± 3.9 µM

Question: What about the “microbicidal effect on PA14 planktonic growth (in words)” value [8] of the same molecule?
Answer: remained unchanged

Question: What about the “microbicidal effect on PAO1 planktonic growth (in words)” value [9] of the same molecule?
Answer: remained unchanged

Question: With Cl.Cn1c(C(=O)NCCCc2c[nH]c(N)n2)cc(Br)c1Br [Compound 23, 4,5-dibromo-1-methyl-pyrrole-2-carboxylic acid [3-(2-amino-1H-imidazol-4-yl)-propyl]-amide hydrochloride] as the molecule, how does the “% Biofilm Inhibition at 500 μM vs PA14” value ([4]; 500 μM, hydrochloride) read?
Answer: >95%

Question: And the inhibition at 500 µM ([4]; Pseudomonas aeruginosa, PA14, 24 h)?
Answer: > 95%

Question: What about the IC50 ([4]; Pseudomonas aeruginosa) of the same molecule?
Answer: 111 ± 8 µM

Question: And the IC50 [10]?
Answer: 238 µM

Question: What about the “% Biofilm Inhibition at 500 μM vs PAO1” value ([5]; 500 μM, hydrochloride) of the same molecule?
Answer: >95%

Question: What about the inhibition at 500 µM ([5]; Pseudomonas aeruginosa, PAO1) of the same molecule?
Answer: > 95%

Question: And the IC50 ([5]; Pseudomonas aeruginosa, PAO1)?
Answer: 51 ± 9 µM

Question: What about the “fold more active than both TAGE and CAGE” value ([5]; from IC50 values against PAO1 and PA14) of the same molecule?
Answer: approximately 2 fold

Question: And the “bactericidal activity against PDO300 (in words)” value [11]?
Answer: lacked significant bactericidal activity

Question: What about the “dispersion of existing A. baumannii biofilms (in words)” value [12] of the same molecule?
Answer: able to successfully disperse

Question: And the IC50 [13]?
Answer: 110 µM

Question: What about the IC50 [14] of the same molecule?
Answer: 115 µM

Question: And the “dispersion of existing P. aeruginosa biofilms (in words)” value [15]?
Answer: able to successfully disperse

Question: And the “microbicidal effect on A. baumannii planktonic growth (in words)” value [16]?
Answer: no microbicidal effects

Question: And the “dispersion of existing B. bronchiseptica biofilms (in words)” value [17]?
Answer: able to successfully disperse

Question: And the “microbicidal effect on PA14 planktonic growth (in words)” value [8, 18]?
Answer: no reduction

Question: And the “microbicidal effect on PA14 planktonic growth (in words)” value [8, 19]?
Answer: not due to a bactericidal effect

Question: And the “microbicidal effect on PAO1 planktonic growth (in words)” value [9, 18]?
Answer: no reduction

Question: And the “microbicidal effect on PAO1 planktonic growth (in words)” value [9, 19]?
Answer: not due to a bactericidal effect
